{
  "source": "patent US11491134B2",
  "about": "“Composition for inhibiting skin cell proliferation and/or anti-inflammation method for inhibiting skin cell proliferation and/or anti-inflammation and method for treating skin diseases and/or inflammatory diseases” (Industrial Technology Research Institute, priority 2019, dated 2022)",
  "system": "keratinocytes, HaCaT cells",
  "test": "Inhibition rate on keratinocyte (HaCaT cell) proliferation, MTT",
  "assay_type": "cell-based",
  "details": "Homo sapiens",
  "description": "Dimethyl sulfoxide (DMSO) was used as a solvent to prepare apigenin test samples with different concentrations and luteolin test samples with different concentrations. 9 batches of experiments were performed, which respectively were Batch 1 to Batch 9. There were 6 independent experiments in each batch of experiments. In each independent experiment, inhibition rate of an apigenin test sample with a specific concentration on keratinocyte proliferation and inhibition rate of a luteolin test sample with a specific concentration on keratinocyte proliferation were determined, and inhibition rate of a combination of an apigenin test sample with the said specific concentration and a luteolin test sample with the said specific concentration on keratinocyte proliferation was determined. Between the independent experiments, concentrations of apigenin test samples used were different, and concentrations of luteolin test samples used were also different, however, mole ratios or weight ratios of apigenin test samples to luteolin test samples were the same. Moreover, between the batches of experiments, mole ratios or weight ratios of apigenin test samples to luteolin test samples were different. 5×10^3 keratinocytes, HaCaT cells, were inoculated in a 96-well culture plate and then placed in a 37° C. and 5% CO2 incubator for culturing overnight, and cell numbers at this time point (T0) was used as a benchmark for cell proliferation. After overnight culture, a test sample was added to the cells in the culture plate (refer to Table 1, and the cells of the control group were only treated with dimethyl sulfoxide) for co-culturing for 48 hours (T48). After that, the supernatant in the culture plate was removed. After the supernatant was removed, 50 μL MTT solution (0.5 mg/mL; Life Technologies Cat. No. M-6494) was added to cells and then the culture plate was placed in a 37° C. and 5% CO2 incubator for culturing for 1.5 hours. After that, 150 μL DMSO (J. T. Baker, Cat. No. 9224-03) was added to the cells in the culture plate and shaken for 5 minutes. Thereafter, the absorbance of each well of the culture plate was determined at 570 nm by a continuous wavelength microplate reader, and inhibition rate on cell proliferation was calculated through the following formula: Inhibition rate on cell proliferation=T48 Control group570 nm−T48 Experimental group570 nm)/(T48 Control group570 nm−T0 Control group570 nm) In this experiment, the synergistic effects of apigenin and luteolin were evaluated by CalcuSyn software (BIOSOFT). CalcuSyn software is an analysis software which is commonly used to analyze the drug dosage effect of single drug and multiple drugs at present. CalcuSyn software can be used to analyze drug complex interactions and automatically quantify various phenomena such as synergism and inhibition. CalcuSyn software can process the data of individual drugs and combination drugs with constant-ratio or on-constant-ratio, and can evaluate the interaction of combination drugs by the combination index (CI) (Chou and Talalay, Adv. Enzyme Regul. 22:27-55 (1984) calculated by CalcuSyn software. Calculation formula for the combination index is shown in the following: Combination index=C1/IC1+C2/IC2 C1 and C2 are the respective concentrations of the first compound and the second compound at which the activity of achieving a specific physiological or medical purpose is 50% (or 75%, or 90%) when the first compound and the second compound are analyzed in combination; IC1 and IC2 are the respective concentrations at which the activity of achieving a specific physiological or medical purpose of the first compound and the second compound is 50% (or 75%, or 90%) when the first compound and the second compound are independently analyzed. […]",
  "data": [
    {"smiles": "O=c1cc(-c2ccc(O)c(O)c2)oc2cc(O)cc(O)c12", "note": "[Luteolin, luteolin]", "values": [
      {"measurement": "inhibition at 3.125 µM", "setting": "Batch 1, luteolin 3.125 μM/0.89 μg/mL", "value": 0, "unit": "%"},
      {"measurement": "inhibition at 6.25 µM", "setting": "Batch 1, luteolin 6.25 μM/1.79 μg/mL", "value": 0.9, "unit": "%"},
      {"measurement": "inhibition at 12.5 µM", "setting": "Batch 1, luteolin 12.5 μM/3.58 μg/mL", "value": 17.2, "unit": "%"},
      {"measurement": "inhibition at 25 µM", "setting": "Batch 1, luteolin 25 μM/7.16 μg/mL", "value": 44.6, "unit": "%"},
      {"measurement": "inhibition at 50 µM", "setting": "Batch 1, luteolin 50 μM/14.31 μg/mL", "value": 67.7, "unit": "%"},
      {"measurement": "inhibition at 100 µM", "setting": "Batch 1, luteolin 100 μM/28.62 μg/mL", "value": 101, "unit": "%"},
      {"measurement": "inhibition at 1.5625 µM", "setting": "Batch 2, luteolin 1.5625 μM/0.45 μg/mL", "value": 11.3, "unit": "%"},
      {"measurement": "inhibition at 3.125 µM", "setting": "Batch 2, luteolin 3.125 μM/0.89 μg/mL", "value": 5.1, "unit": "%"},
      {"measurement": "inhibition at 6.25 µM", "setting": "Batch 2, luteolin 6.25 μM/1.79 μg/mL", "value": 19.6, "unit": "%"},
      {"measurement": "inhibition at 12.5 µM", "setting": "Batch 2, luteolin 12.5 μM/3.58 μg/mL", "value": 35, "unit": "%"},
      {"measurement": "inhibition at 25 µM", "setting": "Batch 2, luteolin 25 μM/7.16 μg/mL", "value": 53.8, "unit": "%"},
      {"measurement": "inhibition at 50 µM", "setting": "Batch 2, luteolin 50 μM/14.31 μg/mL", "value": 75.2, "unit": "%"},
      {"measurement": "inhibition at 0.625 µM", "setting": "Batch 3, luteolin 0.625 μM/0.18 μg/mL", "value": 1.9, "unit": "%"},
      {"measurement": "inhibition at 1.25 µM", "setting": "Batch 3, luteolin 1.25 μM/0.36 μg/mL", "value": 2.8, "unit": "%"},
      {"measurement": "inhibition at 2.5 µM", "setting": "Batch 3, luteolin 2.5 μM/0.72 μg/mL", "value": 4.3, "unit": "%"},
      {"measurement": "inhibition at 5 µM", "setting": "Batch 3, luteolin 5 μM/1.43 μg/mL", "value": 13.7, "unit": "%"},
      {"measurement": "inhibition at 10 µM", "setting": "Batch 3, luteolin 10 μM/2.86 μg/mL", "value": 31.9, "unit": "%"},
      {"measurement": "inhibition at 20 µM", "setting": "Batch 3, luteolin 20 μM/5.72 μg/mL", "value": 55.6, "unit": "%"},
      {"measurement": "inhibition at 0.3125 µM", "setting": "Batch 4, luteolin 0.3125 μM/0.09 μg/mL", "value": 0.4, "unit": "%"},
      {"measurement": "inhibition at 0.625 µM", "setting": "Batch 4, luteolin 0.625 μM/0.18 μg/mL", "value": 0, "unit": "%"},
      {"measurement": "inhibition at 1.25 µM", "setting": "Batch 4, luteolin 1.25 μM/0.36 μg/mL", "value": 0, "unit": "%"},
      {"measurement": "inhibition at 2.5 µM", "setting": "Batch 4, luteolin 2.5 μM/0.72 μg/mL", "value": 0, "unit": "%"},
      {"measurement": "inhibition at 5 µM", "setting": "Batch 4, luteolin 5 μM/1.43 μg/mL", "value": 0.8, "unit": "%"},
      {"measurement": "inhibition at 10 µM", "setting": "Batch 4, luteolin 10 μM/2.86 μg/mL", "value": 6.6, "unit": "%"},
      {"measurement": "inhibition at 0.15625 µM", "setting": "Batch 5, luteolin 0.15625 μM/0.04 μg/mL", "value": 11.4, "unit": "%"},
      {"measurement": "inhibition at 0.3125 µM", "setting": "Batch 5, luteolin 0.3125 μM/0.09 μg/mL", "value": 14, "unit": "%"},
      {"measurement": "inhibition at 0.625 µM", "setting": "Batch 5, luteolin 0.625 μM/0.18 μg/mL", "value": 4.3, "unit": "%"},
      {"measurement": "inhibition at 1.25 µM", "setting": "Batch 5, luteolin 1.25 μM/0.36 μg/mL", "value": 0, "unit": "%"},
      {"measurement": "inhibition at 2.5 µM", "setting": "Batch 5, luteolin 2.5 μM/0.72 μg/mL", "value": 0, "unit": "%"},
      {"measurement": "inhibition at 5 µM", "setting": "Batch 5, luteolin 5 μM/1.43 μg/mL", "value": 3.3, "unit": "%"},
      {"measurement": "inhibition at 3.125 µM", "setting": "Batch 6, luteolin 3.125 μM/0.89 μg/mL", "value": 0, "unit": "%"},
      {"measurement": "inhibition at 6.25 µM", "setting": "Batch 6, luteolin 6.25 μM/1.79 μg/mL", "value": 0.6, "unit": "%"},
      {"measurement": "inhibition at 12.5 µM", "setting": "Batch 6, luteolin 12.5 μM/3.58 μg/mL", "value": 18.5, "unit": "%"},
      {"measurement": "inhibition at 25 µM", "setting": "Batch 6, luteolin 25 μM/7.16 μg/mL", "value": 42.2, "unit": "%"},
      {"measurement": "inhibition at 50 µM", "setting": "Batch 6, luteolin 50 μM/14.31 μg/mL", "value": 57.8, "unit": "%"},
      {"measurement": "inhibition at 100 µM", "setting": "Batch 6, luteolin 100 μM/28.62 μg/mL", "value": 94.2, "unit": "%"},
      {"measurement": "inhibition at 3.125 µM", "setting": "Batch 7, luteolin 3.125 μM/0.89 μg/mL", "value": 8.6, "unit": "%"},
      {"measurement": "inhibition at 6.25 µM", "setting": "Batch 7, luteolin 6.25 μM/1.79 μg/mL", "value": 19, "unit": "%"},
      {"measurement": "inhibition at 12.5 µM", "setting": "Batch 7, luteolin 12.5 μM/3.58 μg/mL", "value": 37.5, "unit": "%"},
      {"measurement": "inhibition at 25 µM", "setting": "Batch 7, luteolin 25 μM/7.16 μg/mL", "value": 55.1, "unit": "%"},
      {"measurement": "inhibition at 50 µM", "setting": "Batch 7, luteolin 50 μM/14.31 μg/mL", "value": 70.1, "unit": "%"},
      {"measurement": "inhibition at 100 µM", "setting": "Batch 7, luteolin 100 μM/28.62 μg/mL", "value": 108, "unit": "%"},
      {"measurement": "inhibition at 3.125 µM", "setting": "Batch 8, luteolin 3.125 μM/0.89 μg/mL", "value": 5.2, "unit": "%"},
      {"measurement": "inhibition at 6.25 µM", "setting": "Batch 8, luteolin 6.25 μM/1.79 μg/mL", "value": 13.8, "unit": "%"},
      {"measurement": "inhibition at 12.5 µM", "setting": "Batch 8, luteolin 12.5 μM/3.58 μg/mL", "value": 33.5, "unit": "%"},
      {"measurement": "inhibition at 25 µM", "setting": "Batch 8, luteolin 25 μM/7.16 μg/mL", "value": 50.7, "unit": "%"},
      {"measurement": "inhibition at 50 µM", "setting": "Batch 8, luteolin 50 μM/14.31 μg/mL", "value": 63.6, "unit": "%"},
      {"measurement": "inhibition at 100 µM", "setting": "Batch 8, luteolin 100 μM/28.62 μg/mL", "value": 100, "unit": "%"},
      {"measurement": "inhibition at 3.125 µM", "setting": "Batch 9, luteolin 3.125 μM/0.89 μg/mL", "value": 4.2, "unit": "%"},
      {"measurement": "inhibition at 6.25 µM", "setting": "Batch 9, luteolin 6.25 μM/1.79 μg/mL", "value": 11, "unit": "%"},
      {"measurement": "inhibition at 12.5 µM", "setting": "Batch 9, luteolin 12.5 μM/3.58 μg/mL", "value": 30.1, "unit": "%"},
      {"measurement": "inhibition at 25 µM", "setting": "Batch 9, luteolin 25 μM/7.16 μg/mL", "value": 47.8, "unit": "%"},
      {"measurement": "inhibition at 50 µM", "setting": "Batch 9, luteolin 50 μM/14.31 μg/mL", "value": 62, "unit": "%"},
      {"measurement": "inhibition at 100 µM", "setting": "Batch 9, luteolin 100 μM/28.62 μg/mL", "value": 104, "unit": "%"}
    ]}
  ]
}
